According to BindingDB's records for doi:10.1016/j.bmcl.2005.01.080 (University of Minnesota, 2005):

Molecular target: Eukaryotic translation initiation factor 4E (Homo sapiens, UniProt P06730)
Test: Inhibitory concentration against 7-methyl-GTP binding to eukaryotic translation initiation factor 4E

Sequence of Eukaryotic translation initiation factor 4E (P06730 whole entry): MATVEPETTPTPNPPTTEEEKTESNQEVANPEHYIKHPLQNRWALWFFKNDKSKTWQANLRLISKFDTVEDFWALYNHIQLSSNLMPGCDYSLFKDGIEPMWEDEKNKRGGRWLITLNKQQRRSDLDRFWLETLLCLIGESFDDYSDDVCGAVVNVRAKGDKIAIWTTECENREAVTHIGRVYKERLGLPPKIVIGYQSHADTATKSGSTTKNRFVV

IC50 [µM] | SMILES
> 400 | CN1CN(C2O[C@H](CO)[C@@H](O)[C@H]2O)C2=NC=NC(O)C21 (some centres not stated)
> 400 | CN1CN(C2O[C@H](CO)[C@@H](O)[C@H]2O)c2nc(N)[nH]c(=S)c21 (some centres not stated)
